Measurements as given in patent publication US9642922B2, “Caspase-triggered nano-aggregation probes and methods of use” (The Board of Trustees of the Leland Stanford Junior …, priority 2013, dated 2017).
Numbered stars: 1 amine (or outer) side, 2 acyl side, 3 side chain; on linkers, the order of the positions; unused ones are H or OH. Square brackets hold non-standard residues; d marks the D form. Peptide text beside a SMILES is read from it. * marks the point of attachment. DOTA = O=C(O)CN1CCN(CC(=O)O)CCN(CC(=O)*)CCN(CC(=O)O)CC1; X1 = O=C(C1CSC(c2nc3ccc(N[*:1])cc3s2)=N1)[*:2]; X2 = N#Cc1ccc2cc(OCCCN*)ccc2n1; SEt = CCS*

Columns and labels:
subcutaneous HeLa tumors [1] = test: In vivo fluorescence imaging of DOX-treated HeLa tumor-bearing mice; parameters: species or system mouse
Method: C-SNAF or either of the control probes (5 nmol) was administered intravenously to tumor-bearing mice and whole animal fluorescence was longitudinally monitored using a Maestro fluorescence imager.
To establish tumors in 6-week-old female nu/nu mice, 2×10^6 HeLa cells suspended in 50 μL of a 50% v/v mixture of Matrigel in supplemented DMEM (10% FBS, 1% penstrep) were injected subcutaneously in the shoulders of the mouse. Tumors were grown until a single aspect was 0.7 to 0.9 cm (approximately 10-15 days), and then treatment consisting of 8 mg/kg DOX or saline was initiated. Treatments were administered intravenously once every 4 d for a total of three times. Total mouse body weight and tumor size (width and length by caliper) was measured every other day. Tumor volumes were calculated assuming ellipsoid shape with the formula (l×w^2)/2.
Two days following the final treatment, 5 nmol probe in saline was injected intravenously and fluorescence imaging began immediately on a Maestro hyperspectral fluorescent imaging system (PerkinElmer, Mass., USA) using a 635±25 nm excitation filter and a 675 nm long-pass emission filter, with images acquired from 670 to 900 nm. Tissue autofluorescence and Cy5.5 fluorescence were deconvolved, and tumor fluorescence intensity was quantified by region of interest measurement using Nuance v.3.0.1.2 software (Perkin Elmer, Mass., USA).

[2] = test system: DOX-induced apoptotic HeLa cells; test: Flow cytometry of DOX-induced apoptotic HeLa cells labeled with probes; assay type: cell-based, human; settings: 5 μM DOX, 2 μM probe, 24 h
Method: For the DOX-induced apoptotic cells, HeLa cells in 12-well plates were co-incubated with DOX (5 μM) and 2 μM C-SNAF, L-ctrl and D-ctrl, or 2 μM C-SNAF together with 50 μM Z-VAD-fmk for 24 h. After washing with PBS (1×) three times, the cells pellets were resuspended in 300 μL PBS, and applied for flow cytometry analysis using the Cy5.5 channels. The cell number for each flow cytometry analysis was approximately 5×10^3 to 10^4, and the data was processed using FlowJo software.

caspase-3 = target: T1, caspase-3 (Homo sapiens, UniProt P42574); test: HPLC assay of caspase-3-triggered macrocyclization of C-SNAF; assay type: biochemical; parameters: purchased Sigma; host or cells: E. coli; settings: probe 25 μM, caspase-3, 6 h
T1 sequence (P42574 29-175 limits assumed): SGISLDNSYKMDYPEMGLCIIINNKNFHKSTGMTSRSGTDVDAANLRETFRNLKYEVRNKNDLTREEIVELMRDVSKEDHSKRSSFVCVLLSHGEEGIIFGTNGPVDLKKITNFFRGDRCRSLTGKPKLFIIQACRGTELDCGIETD
T1 sequence (P42574 176-277 limits assumed): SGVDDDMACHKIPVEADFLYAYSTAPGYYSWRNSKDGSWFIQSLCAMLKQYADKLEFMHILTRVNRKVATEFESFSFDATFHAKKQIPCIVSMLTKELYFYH
Method: The progression of caspase-3-triggered macrocyclization of C-SNAF to form C-SNAF-cycl in solution was monitored using high-performance liquid chromatography (HPLC) following incubation of the probe (25 μM) with recombinant human caspase-3 (4.9×10^−[…]).
Caspase (human, recombinant from E. coli) assays were performed for caspase-3 (4.9×10^−3 U; 7.35×10^−4 mg, Sigma), −7 (18.3 U; 7.35×10^−4 mg, Calbiochem), and −9 (0.3 U; 7.35×10^−4 mg, Calbiochem). All caspase assays were conducted in caspase buffer with 50 mM HEPES, 100 mM NaCl, 1 mM EDTA, 10 mM TCEP, 10% glycerol, and 0.1% CHAPS at pH 7.4. Cathepsin B (human liver; 0.27 U; 7.35×10^−4 mg, Calbiochem) and Legumain (human, recombinant from mouse myeloma cell line; >250 pmol/min/μg; 7.35×10^−4 mg, R&D Systems) were conducted in reaction buffer with 50 mM sodium acetate, 50 mM NaCl, 0.5 mM EDTA and 10 mM TCEP at pH 5.5. C-SNAF was diluted in the respective enzyme reaction buffer (25 μM, 1 mL) and remained at room temperature for 10 min, to which was then added the respective enzymes. Reactions were performed at 37° C., and monitored by HPLC hourly. The percentage conversion of the reaction was calculated based on the percentage of peak area of C-SNAF-cycl in the HPLC trace at 675 nm UV detection, which indicated the efficacy of enzyme cleavage of C-SNAF.

subcutaneous HeLa tumors [3] = test: In vivo MR imaging of doxorubicin-treated HeLa tumors; parameters: species or system mouse
Method: Evaluation of activatable contrast agent probe 15 for MR imaging of caspase-3 activity in vivo was performed in nude mice bearing subcutaneous HeLa tumors. Tumors were implanted and grown for 10-15 days before receiving intratumoral injections of two doses of 0.2 mg doxorubicin separated by 2 days. Probe 15 or 1-ctrl (19) (0.1 mmol kg^−1) was injected intravenously the day before treatment (baseline) and four days post-treatment (treated). Spin-echo T1-weighted multislice MR images at 1 T were recorded before (pre-contrast) and every 4 min after contrast agent administration (post-contrast), and scanning was carried out for 4 h post-contrast for each mouse. Much brighter MR signals (T1 contrast) were observed 40 and 120 min after injection with probe 15 in treated tumors as compared to that in baseline tumors (FIG. 29A), or in treated tumors with 1-ctrl (19) (FIG. 29B).
In vivo MR imaging was performed on an Aspect M2 1T permanent magnet (Aspect Imaging, Shoham, Israel) using a 40 mm Transmit/Receive mouse body coil. During imaging, the animals were anaesthetized with isofluorane and their respiration and body temperature were constantly monitored. Intravenous contrast injection at 0.1 mmol/kg concentration was administered in a 100 μL volume for every imaging session. Multi-slice (312 μm in-plane, 12 slices with 1 mm thickness) T1-weighted spin echo images (TE/TR=8.9/250 ms, matrix 128×128, FOV=40 mm, NEX=6) were acquired, one before contrast injection and then every 4 min up to 4 h after contrast injection. A 1 mM Dotarem reference tube was inserted in the field of view to enable inter-session variability correction during post-processing. Each animal underwent two imaging session; one before DOX treatment (baseline), and one after DOX treatment (treated).
Acquired MR data were transferred as DICOM images to an offline workstation and ImageJ (NIH) was used for post processing and quantitative image analysis. This consisted of manual segmentation of tumor ROI for each slice, slice-wise normalization of mean tumor signal intensity with the 1 mM Dotarem reference standard to account for inter-session variability, followed by combining these normalized, slice-wise values to generate mean volumetric tumor signal intensities (SI) for each time point.
Signal enhancement was calculated at each time point as the difference between the tumor SI at that time point and the tumor SI in the pre-contrast (t=0) dataset. SE(t)=SI(t)−SI(t=0); for each mouse, for every session
This metric was used to quantify the difference in SE between the baseline (before DOX treatment) session and the treated session for each mouse, as a means to tease out the difference between the two contrast agents, probe 1 and 1-cntl (19) over the time course of the imaging session. % D(t)=[SE(t,treated)−SE(t,baseline)]/SE(t,baseline); for each mouse.

Row | Compound | time of maximum tumor fluorescence after administration (subcutaneous HeLa tumors [1]; 5 nmol i.v.) [h] | correlation (r) of maximum tumor fluorescence with maximum tumor size change (subcutaneous HeLa tumors [1]; 3×DOX-treated mice, 1 h after probe) | increase in fluorescence signal in DOX-treated tumors compared to saline-treated (subcutaneous HeLa tumors [1]; 4 h after 5 nmol probe, 3×DOX) [fold] | increase in Cy5.5 intensity of DOX-induced apoptotic cells compared to no probe or control probes [2] [fold] | conversion to C-SNAF-cycl after 6 h (caspase-3) | time of maximum SI enhancement in treated tumors after administration (subcutaneous HeLa tumors [3]; 0.1 mmol kg^−1 i.v.) [min] | % difference in tumor SI enhancement, treated versus baseline (subcutaneous HeLa tumors [3]; 20 min) [%] | % difference in tumor SI enhancement, treated versus baseline (subcutaneous HeLa tumors [3]; 120 min) [%] | SI enhancement in treated mice higher than with 1-ctrl (19) (subcutaneous HeLa tumors [3]; 120 min after injection) [%] | Gd uptake in tumors (ICP-MS) (subcutaneous HeLa tumors [3]; mouse, in vivo)
1 | CCSSC[C@@H](NC(=O)[C@H](CC(=O)O)NC(=O)[C@@H](NC(=O)[C@H](CCC(=O)O)NC(=O)[C@H](CC(=O)O)NC(C)=O)C(C)C)C(=O)N[C@@H](CCCCNC(=O)CCCCCN1C(=CC=CC=CC2=[N+](CC)c3ccc4c(S(=O)(=O)[O-])cc(S(=O)(=O)O)cc4c3C2(C)C)C(C)(C)c2c1ccc1c(S(=O)(=O)O)cc(S(=O)(=O)O)cc21)C(=O)Nc1ccc2nc(C3=N[C@@H](C(=O)NCCCOc4ccc5nc(C#N)ccc5c4)CS3)sc2c1 [C-SNAF] | 1 | −0.9 | 1.6 | ~4 | almost completely converted to C-SNAF-cycl | – | – | – | – | –
2 | CCSSCC(NC(=O)C(CC(=O)O)NC(=O)C(NC(=O)C(CCC(=O)O)NC(=O)C(CC(=O)O)NC(C)=O)C(C)C)C(=O)NC(CCCCNC(=O)CN1CCN(CC(=O)[O-])CCN(CC(=O)[O-])CCN(CC(=O)[O-])CC1)C(=O)Nc1ccc2nc(C3=NC(C(=O)NCCCOc4ccc5nc(C#N)ccc5c4)CS3)sc2c1.[Gd+3] (stereo not shown) [probe 15] (Ac-DEVDC(SEt)K(DOTA)[X1]-X2; configuration not given here) | – | – | – | – | – | 40 | 62 | 169 | 77 | higher Gd level in treated tumors
